Laboratory results taken from patent publication US10925974B2, “Adipose tissue-targeting polypeptide-verbascoside-nanogold particle derivative, preparation method and application thereof” (Affiliated Stomatological Hospital of Nanjing Medical …, priority 2018, dated 2021).
Marks after values point to notes of the source that are not given here. Ends that are not written are not given here.

Columns and labels:
[1] = system: visceral fat and subcutaneous fat of mice; test: Storage of visceral fat and subcutaneous fat of mice provided with high fat feed; format: in vivo
Experimental: 1) Providing an intraperitoneal administration to the high-fat-fed obese mice for 12 weeks according to the experimental procedure of Embodiment 3;
2) Fasting the mice of each group for 12 hours, and then anesthetizing with 3% pentobarbital sodium having a concentration of 45 mg/kg via intraperitoneal injection, and accurately weighing the mice;
3) Disinfecting routinely and performing laparotomy, rapidly extracting and weighing the adipose tissue around the kidney, adipose tissue around the mesentery, adipose tissue around the epididymis, and abdominal subcutaneous adipose tissue to obtain wet weights thereof (the abdominal subcutaneous adipose tissue range: abdomen below the rib arch and above the groin, both sides are bounded by the midaxillary line);
4) Calculating according to the following formula: wet weight of the abdominal adipose; total weight of the fat pad (g)=adipose tissue around the kidney+adipose tissue around the epididymis; body fat content=the total weight of the fat pad (g)/the total body weight of mice (g);

[2] = Inhibition of weight gain of mice fed with high-fat feed; format: in vivo
Source text: Experimental Animals: 3-4 weeks old male mice and feed provided by the Laboratory Animal Center of Nanjing Medical University, license No.: SCXK (Su) 2011-0003. The animals were randomly caged, with unlimited drink and feed. Experimental drugs: polypeptide-verbascoside-nanogold particle derivative (adipose tissue-targeting), polypeptide-verbascoside derivative, polypeptide-nanogold derivative, and verbascoside-nanogold derivative as experimental groups, and physiological saline for negative control. 2) Raising 60 male mice of 6 weeks old in the clean environment of Experimental Animal Center of Nanjing Medical University, at a temperature of (21±2) ° C., a humidity of (35±2) %, an intermittent illumination for 12 hours, with unlimited drink and feed; wherein the drinking water is distilled water prepared by the experimental animal center; 3) After 2-3 days of adaptive feeding, randomly selecting 10 mice as a blank control group provided with regular feed, while providing the remaining 50 rice with high fat feed (cholesterol 1 wt. %, lard 20 wt. %, bile salt 0.2 wt. %, and regular feed 78.8 wt. %); measuring the body weight of the mice in the two groups every 2 weeks; analyzing the obtained body weight data with statistical methods, and the results are shown in FIG. 3, wherein *P<0.05, **P<0.01, and ***P<0.001 indicate body weight data of the experimental group compared with those of the blank control group fed with regular feed; 4) Randomly dividing the obese mice fed with high-fat feed into several groups, with each group of 10 mice; injecting (exemplified by intraperitoneal injection) physiological saline (0.03 mL of physiological saline per 30 g body weight), polypeptide-verbascoside derivative (15 mg of derivative per kg body weight, dissolved in DMSO), polypeptide-nanogold derivative (15 mg of derivative per kg body weight, dissolved in DMSO), verbascoside-nanogold derivative (15 mg of derivative per kg body weight, dissolved in DMSO), and polypeptide-verbascoside-nanogold particle derivative (15 mg of derivative per kg body weight, dissolved in DMSO) at 9:30 am every day, respectively.

[3] = high fat feed mice, 15 mg/kg i.p. daily for 12 weeks, wet weight

## polypeptide-verbascoside: ester of adipose tissue-targeting polypeptide CKGGRAKDC (C-terminal acyl chloride) with verbascoside sodium phenolate, per Embodiment 1 (not fully specified (C-terminus); cysteine pairing not given here)
[1]; Table 3, high fat feed mice, 12 weeks, after 12 h fasting
  Body weight: 35.46 ± 1.57 g
[1]; Table 4, high fat feed mice, 12 weeks
  Body weight: 35.26 ± 1.77 g
[1]; abdominal subcutaneous fat, high fat feed mice, 12 weeks
  SF-FAT: 0.79 ± 0.12 g
[1]; adipose tissues around kidney + around epididymis, high fat feed mice, 12 weeks
  Total weight of the fat pad: 2.27 ± 0.14 g
[1]; after treatment, compared with the model control group (#p<0.05)
  wet weight of the visceral adipose tissues of mice: significantly reduced
[1]; high fat feed mice, 15 mg/kg i.p. daily for 12 weeks, Table 2
  Total weight of visceral adipose tissues: 5.72 ± 0.17 g
[1]; [3]
  Weight of visceral adipose tissues: Around epididymis: 1.21 ± 0.12 g
  Weight of visceral adipose tissues: Around kidney: 0.61 ± 0.17 g
  Weight of visceral adipose tissues: Around omentum and mesentery: 0.32 ± 0.05 g
[1]; high fat feed mice, 12 weeks
  SF-FAT/body weight: 2.27 ± 0.23
  VF-FAT/SF-FAT: 2.63 ± 0.29
[1]; total weight of the fat pad / total body weight, high fat feed mice, 12 weeks
  Body fat index: 6.13 ± 0.41 %
[1]; visceral fat, Table 4, high fat feed mice, 12 weeks
  VF-FAT: 5.78 ± 0.17 g
[2]; high fat feed mice, 15 mg/kg intraperitoneal injection every day, 6 weeks, n=10
  Weight 6 weeks after administration: 30.6 ± 0.3 g
[2]; high fat feed mice, 15 mg/kg intraperitoneal injection every day, 12 weeks, n=10
  Weight 12 weeks after administration: 35.5 ± 1.6 g
[2]; high fat feed obese mice, before administration (baseline), n=10
  Initial Weight: 29.3 ± 0.5** g
[2]; treatment for 6 weeks, compared with the model control group (#p<0.05)
  weight gains of mice: significantly inhibited
